Assay results: patent US12318452B2, “Degraders of WEE1 kinase” (DANA-FARBER CANCER INSTITUTE, INC., priority 2018, dated 2025)

Key:
[1] = test system: 300 suspension and hematopoietic cancer cell lines; experiment: PRISM pooled cytotoxicity assay; format: cell-based
[2] = biological target: T1, Wee1 (Homo sapiens, UniProt P30291); experiment: LanthaScreen FRET-based biochemical binding assay for Wee1; conditions: LanthaScreen Binding activity assay; average of two replicates ± SD
Procedure: LanthaScreen™ assays were conducted for Wee1 in a 10-point dose response as performed in the commercial assay service by Life Technologies™. Z′-LYTE™ assays were conducted for PLK1 as performed in the commercial assay service by Life Technologies™ in a 10-point dose response using Km ATP concentrations.

[3] = biological target: T1, Wee1; experiment: Cellular degradation of Wee1 by immunoblot, 6-hour treatment of MOLT4 cells; format: cell-based; design: endogenous in cells; host or cells: MOLT4 (wild type; CRBN-/- as control); conditions: for Wee1 degradation / percent Wee1 degradation at 1 µM: MOLT4 cells; for Wee1 degradation: immunoblot; for percent Wee1 degradation at 1 µM: MOLT-4, 1 μM, approximated by immunoblot, read-out: Extent of Degradation of Wee1
Procedure: General Protocol: HT-29, MOLT4 wild type (WT) or CRBN^-/- cells were plated in a 6 well plate and treated for 6 hours with the indicated concentrations of the inventive compounds and control. HT-29 cells were cultured in McCoy's Media supplemented with 10% FBS and 1% Penicillin/Streptomycin. MOLT4 WT and CRBN^-/- cells were cultured in Roswell Park Memorial Institute (RPMI) medium supplemented with 10% FBS and 1% Penicillin/Streptomycin. Mycoplasma testing was performed every month and all lines were negative. Immunoblotting: Cells were washed with phosphate-buffered saline (PBS) and then lysed using radioimmunoprecipitation assay (RIPA) buffer supplemented with protease and phosphatase inhibitor cocktail (Roche) on ice for 15 minutes. The lysates were centrifuged at 14,000 rpm for 15 minutes at 4° C. and protein was quantified by bicinchoninic acid (BCA) assay (PierceTM). Primary antibodies used include: Wee1 ([…]) (Cell Signaling Technology®, 13084S), polo-like kinase 1 (PLK1) (Thermo Fisher Scientific, 37-7000), phosphor-cdc2 (Y15) (10A11) (Cell Signaling Technology®, […]), phospho-histone H3 ([…]) (Cell Signaling Technology®, […]), Ikaros ([…]) (Cell Signaling Technology®, 14859S), Aiolos ([…]) (Cell Signaling Technology®, 15103), casein kinase 1 alpha (Abcam®, 108296), β-actin (Cell Signaling Technology®, 8H10D10). FIG. 2A is an immunoblot showing that compound 13 degraded Wee1 after a 6-hour treatment in MOLT4 cells, and induced the downstream changes expected from Wee1 loss-including a decrease in phosphorylated cyclin-dependent kinase 1 (pCDK1) (Y15) and an increase in pH 3. […] Degradation of Wee1 by compound 13 was rescued in MOLT4 CRBN^-/- cells. MOLT4 WT and CRBN^-/- cells were plated in a 6-well plate at 2.25 million cells per well in 3 mL media (RPMI+10% FBS+1% Penn/Strep). After treatment with the indicated concentrations of candidate compounds, cells were incubated for 6 hours at 37° C. 5% CO2. To harvest, the cells were washed 1× with cold PBS, then collected by centrifugation. Cell pellets were lysed in RIPA buffer with protease and phosphatase inhibitors (Roche). Lysates were clarified by centrifugation, and protein concentrations were normalized using a BCA assay (Thermo ScientificTM). The samples were diluted with 4×LDS+10% β-mercaptoethanol, and were boiled at 95° C. for 5 minutes. Proteins of interest were then assessed by western blotting. […] The experimental protocol was the same as in Example 28.

[4] = biological target: T1, Wee1; experiment: Wee1 degradation immunoblot in MOLT4 cells, 5-hr dose response and time course; format: cell-based; design: endogenous in cells; host or cells: MOLT4 (wild type; CRBN-/- as control); conditions: for Wee1 degradation: 5-hr exposure, 100 nM-10 μM
Procedure: Whole cell lysates for immunoblotting were prepared by pelleting cells from each cell line at 4° C. (300 g) for 5 minutes. The resulting cell pellets were washed 1× with ice-cold PBS and then resuspended in RIPA lysis buffer (Sigma, cat #R0278) supplemented with protease and phosphatase inhibitor tablets (Roche cat #4906845001). Lysates were clarified at 14,000 rpm for 15 minutes at 4° C. prior to quantification by BCA assay (Pierce™, cat #23225). Whole cell lysates were loaded into Bolt 4-12% Bis-Tris Gels (Thermo Fisher, cat #NW04120BOX) and separated by electrophoreses at 95 V for 1.5 hours. The gels were transferred to a nitrocellulose membrane using the iBlot® Gel Transfer at P3 for 7 minutes (Thermo Fisher, cat #IB23001) and then blocked for 1 hour at room temperature in Odyssey® blocking buffer (LICOR® Biosciences, cat #927-50010). Membranes were probed using antibodies against the relevant proteins at 4° C. overnight in 20% Odyssey® Blocking Buffer in 1×TBST. Membranes were then washed three times with 1×TBST (at least 5 minutes per wash) followed by incubation with the IRDye® goat anti-mouse (LICOR®, cat #926-32210) or goat anti-rabbit (LICOR®, cat #926-32211) secondary antibody (diluted 1:10,000) in 20% Odyssey® Blocking Buffer in 1×TBST for 1 hour at room temperature. After three washes with 1×TBST (at least 5 minutes per wash), the immunoblots were visualized using the ODYSSEY® Infrared Imaging System (LICOR®).
MOLT4 cells were plated at 1.5 million cells per well in a 6-well plate, with 3 mL of media per well. Cells were then immediately treated with the indicated concentration of the indicated compound and incubated for the indicated amount of time. Cells were collected by transferring each well to a 15 mL conical, centrifuging (1000 rpm for 3 min), then washing the cell pellet 2× with cold PBS. Each cell pellet was then lysed in 100 μL of RIPA lysis buffer (+protease/phosphatase inhibitors). Samples were normalized and prepped in 4×LDS+10% β-mercaptoethanol and boiled for 5 min at 95° C. Lysates were probed for specified proteins by western blotting using the Bolt® system (Life Technologies™)
To confirm that compound 13-mediated Wee1 degradation is CRBN dependent (FIG. 1D), Wee1 degradation profiles in parental versus CRBN^−/− MOLT4 cells were compared. In parental MOLT4 cells, compound 13 induced potent Wee1 degradation after 5 hours, with maximal degradation observed at 100 nM and a “hook effect” apparent at the top concentration of 10 μM, where compound 13:CRBN and compound 13-Wee1 binary complexes inhibit the formation of a productive ternary complex (Toure and Crews, Angew. Chem. 55:1966-1973 (2016)).
To evaluate the kinetics of Wee1 degradation, a time course study was performed in MOLT4 cells using 100 nM compound 13. Degradation occurred rapidly, with over 50% degradation achieved within 30 min, and complete degradation reached by 3 hr (FIG. 4C).

[5] = 100 nM, MOLT4 cells, time course

T1 sequence (P30291 whole entry): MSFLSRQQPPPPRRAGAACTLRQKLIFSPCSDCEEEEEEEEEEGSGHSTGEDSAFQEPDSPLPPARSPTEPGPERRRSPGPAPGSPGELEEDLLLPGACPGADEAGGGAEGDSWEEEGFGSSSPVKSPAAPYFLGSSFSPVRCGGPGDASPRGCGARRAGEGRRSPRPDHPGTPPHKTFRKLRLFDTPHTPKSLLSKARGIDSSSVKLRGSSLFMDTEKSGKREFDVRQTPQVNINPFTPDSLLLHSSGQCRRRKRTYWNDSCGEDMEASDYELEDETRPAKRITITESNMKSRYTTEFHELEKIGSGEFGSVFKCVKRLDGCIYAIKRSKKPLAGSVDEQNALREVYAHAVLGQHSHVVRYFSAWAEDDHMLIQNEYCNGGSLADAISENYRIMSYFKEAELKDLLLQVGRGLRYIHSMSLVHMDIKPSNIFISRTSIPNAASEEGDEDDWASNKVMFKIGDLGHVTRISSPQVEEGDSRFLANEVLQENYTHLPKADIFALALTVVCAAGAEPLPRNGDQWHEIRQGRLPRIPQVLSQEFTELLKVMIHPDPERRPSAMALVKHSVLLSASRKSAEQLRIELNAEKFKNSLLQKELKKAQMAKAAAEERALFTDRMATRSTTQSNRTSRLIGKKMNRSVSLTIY

| Effect on Wee1 protein levels over time [4, 5] | Compound | IC50 ([1]; almost all of the lines tested, data not shown, read-out: IC50 values in PRISM panel) | IC50 [2] | Wee1 degradation in CRBN−/− cells ([3]; MOLT4 CRBN−/− cells) | Wee1 degradation [3] | percent Wee1 degradation at 1 µM [3] | Time to complete Wee1 degradation ([4]; 100 nM, MOLT4 cells) | Wee1 degradation achieved within 30 min [4, 5] | Effect on Wee1 abundance in CRBN−/− cells ([4]; CRBN−/− MOLT4 cells, 5 hours) | Wee1 degradation ([4]; MOLT4 cells) | Concentration giving maximal (sufficient) Wee1 degradation ([4]; MOLT4 cells, 5-hr treatment) | Concentration at which hook effect is apparent ([4]; parental MOLT4 cells, 5 hours) | Duration of sustained loss of Wee1 ([4]; single 100 nM treatment, MOLT4 cells) | Potency in PRISM panel relative to compound 13 [1] |
| --- | --- | --- | --- | --- | --- | --- | --- | --- | --- | --- | --- | --- | --- | --- |
| – | C=CCn1c(=O)c2cnc(Nc3ccc(N4CCN(CCCNc5cccc6c5C(=O)N(C5CCC(=O)NC5=O)C6=O)CC4)cc3)nc2n1-c1cccc(C(C)(C)O)n1 (stereo not drawn) [Compound 13, 4-((3-(4-(4-((2-allyl-1-(6-(2-hydroxypropan-2-yl)pyridin-2-yl)-3-oxo-2,3-dihydro-1H-pyrazolo[3,4-d]pyrimidin-6-yl)amino)phenyl)piperazin-1-yl)propyl)amino)-2-(2,6-dioxopiperidin-3-yl)isoindoline-1,3-dione] | < 1000 nM | 3.58 ± 0.36 nM | rescued | degraded Wee1 | > 50% | ≤ 3 h | over 50% | no effect on Wee1 abundance | degraded Wee1 | 100 nM | 10 µM | at least 48 hrs | – |
| no effect on Wee1 protein levels | C=CCn1c(=O)c2cnc(Nc3ccc(N4CCN(CCCNc5cccc6c5C(=O)N(C5CCC(=O)N(C)C5=O)C6=O)CC4)cc3)nc2n1-c1cccc(C(C)(C)O)n1 (stereo not drawn) [Compound 20, 4-((3-(4-(4-((2-allyl-1-(6-(2-hydroxypropan-2-yl)pyridin-2-yl)-3-oxo-2,3-dihydro-1H-pyrazolo[3,4-d]pyrimidin-6-yl)amino)phenyl)piperazin-1-yl)propyl)amino)-2-(1-methyl-2,6-dioxopiperidin-3-yl)isoindoline-1,3-dione] | – | 7.38 ± 0.47 nM | – | did not degrade Wee1 | < 25% | – | – | – | did not degrade Wee1 | – | – | – | uniformly less potent |
